Test results as given in PubChem BioAssay (NCI).
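Five compound concentrations were applied to cells in 96-well plates for 48 hours; endpoints were derived by simple linear interpolation of the resulting dose-response curve. GI50 marks 50% less growth. TGI marks complete inhibition of growth.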

Experiments:
Assay in all cases: NCI anticancer screen, dose series, 48 h
[1] = test system: SNB-19 CNS
[2] = test system: NCI-H522 lung
[3] = test system: HOP-62 NSCLC
[4] = test system: HCC-2998 colon
[5] = test system: HCT-15 colon
[6] = test system: HOP-92 NSCLC
[7] = test system: HCT-116 colon
[8] = test system: SR leukemia
[9] = test system: ACHN renal
[10] = test system: SF-539 CNS

| Compound | GI50 [1] | TGI [1] | GI50 [2] | TGI [2] | GI50 [3] | TGI [3] | GI50 [4] | TGI [4] | GI50 [5] | TGI [5] | GI50 [6] | TGI [6] | GI50 [7] | TGI [7] | GI50 [8] | TGI [8] | GI50 [9] | TGI [9] | GI50 [10] | TGI [10] |
| --- | --- | --- | --- | --- | --- | --- | --- | --- | --- | --- | --- | --- | --- | --- | --- | --- | --- | --- | --- | --- |
| CCn1c(-c2nonc2N)nc2cnc(Oc3cccc(NC(=O)c4ccc(OCCN5CCOCC5)cc4)c3)cc21 | 12.1 µM | > 25 µM | 1.41 µM | > 25 µM | 1.5 µM | > 25 µM | 15.2 µM | > 25 µM | 2.16 µM | > 25 µM | 0.0025 µM | > 25 µM | 1.81 µM | > 25 µM | 0.886 µM | > 25 µM | 2.17 µM | > 25 µM | 0.929 µM | > 25 µM |
| O=C(O)c1c2c(c(O)c3c1CN(C1CCCCC1)CO3)OCN(C1CCCCC1)C2 | – | > 100 µM | – | 95.9 µM | – | > 100 µM | – | 84.1 µM | – | > 100 µM | – | > 100 µM | – | > 100 µM | – | 73 µM | – | > 100 µM | – | > 100 µM |
| Cc1cccc(-c2nc(=S)[nH][nH]2)c1 | – | > 100 µM | – | > 100 µM | – | > 100 µM | – | > 100 µM | – | > 100 µM | – | > 100 µM | – | > 100 µM | – | > 100 µM | – | > 100 µM | – | > 100 µM |
| CC1=NC2(C(=O)O)C3(C(=O)O)N=C(C)OC3(C(F)(F)F)C2(C(F)(F)F)O1 (centres undefined) | – | > 100 µM | – | > 100 µM | – | > 100 µM | – | > 100 µM | – | – | – | > 100 µM | – | > 100 µM | – | > 100 µM | – | > 100 µM | – | > 100 µM |
| CC(C)Cn1cnc2c(N)nc3ccccc3c21 | > 93.3 µM | > 100 µM | 78.5 µM | > 100 µM | 22.5 µM | > 64.1 µM | > 63.5 µM | > 100 µM | 29.7 µM | > 100 µM | 31.1 µM | > 100 µM | 19.8 µM | > 73.1 µM | > 100 µM | > 100 µM | 27.9 µM | > 100 µM | 42.9 µM | > 100 µM |
| CC(C)OC(=O)Nc1c([N+](=O)[O-])cc(C(F)(F)F)cc1[N+](=O)[O-] | – | > 100 µM | – | > 100 µM | – | > 100 µM | – | > 100 µM | – | > 100 µM | – | > 91.8 µM | – | > 100 µM | – | > 100 µM | – | > 100 µM | – | 70.3 µM |
| C=CC(=O)N1CCN([C@@H](CC2CC2)c2ccc([C@H](C)Nc3ncc4c(n3)N(CC)C(=O)OC4)cc2)CC1 | 14.4 µM | 27.8 µM | 10.2 µM | 26.1 µM | 12.4 µM | 32.9 µM | 13 µM | 28 µM | 10.3 µM | 25.5 µM | 1.47 µM | 8.06 µM | 7.67 µM | 21.9 µM | 4.05 µM | 22.7 µM | 14.5 µM | 27.9 µM | 11.7 µM | 24.3 µM |
| CN1CCN(CCCOC(=O)c2c3c(n4ccccc24)C(=O)c2ncccc2C3=O)CC1 | < 0.01 µM | 1.45 µM | < 0.01 µM | < 0.0164 µM | < 0.01 µM | 0.0393 µM | < 0.0135 µM | 1.98 µM | < 0.0143 µM | 1.52 µM | 0.254 µM | 16.8 µM | < 0.01 µM | 2.91 µM | < 0.01 µM | > 100 µM | < 0.01 µM | 0.0154 µM | < 0.0154 µM | 0.103 µM |
| CCOc1cc(/C=C/C(=O)CC(=O)/C=C/c2ccc(OC(=O)CNc3nc4ccc(OC)cc4s3)c(OCC)c2)ccc1OC(=O)CNc1nc2ccc(OC)cc2s1 | 6.02 µM | 19.4 µM | 12.6 µM | 34.4 µM | 23 µM | > 100 µM | 3.16 µM | 14.8 µM | 5.24 µM | 22.6 µM | 18 µM | 56.3 µM | 3.02 µM | 15.1 µM | 1.77 µM | 4.66 µM | 14.2 µM | 60.2 µM | 2.12 µM | 5.14 µM |
| [O-]c1ccccc1C=NCCN=Cc1ccccc1[O-].[O]=[U+2]=[O] | 23.3 µM | > 67.3 µM | > 53.4 µM | > 75.2 µM | > 43.3 µM | > 67 µM | 27.9 µM | 83.6 µM | 36.8 µM | > 100 µM | 22.6 µM | 48.3 µM | 46.2 µM | > 100 µM | 51.1 µM | > 100 µM | 25.9 µM | > 60.7 µM | 16.7 µM | 37.6 µM |
